Reference: the supplement of paper PMC10307832

Experiments:
Assay in all cases: relative viability (nuclei count vs DMSO), 5 days (fraction); higher = more cells survive
[1] = compound: CNC(=O)c1ccccc1Sc1ccc2c(/C=C/c3ccccn3)n[nH]c2c1 [Axitinib]
Method in brief: (§1)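 Nuclei counted with MetaXpress define viability as the ratio of treated to vehicle wells, given as a median across plates. The lung cancer cell lines were in 1536-well plates, pinned with five √10-spaced library-drug doses and imaged at 4× after 5 days and Hoechst staining. Plates passed with control CV below 25% and at least one doubling.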

[2] = compound: CC1=CC=C(C=C1)C(=O)CN2C3=C(CCCC3)SC2=N [Pifithrin_alpha]
Method in brief: as §1

[3] = compound: Nc1nc(Nc2ccc3c(c2)CC[C@@H](N2CCCC2)CC3)nn1-c1cc2c(nn1)-c1ccccc1CCC2 [Bemcentinib]
Method in brief: as §1

Cell Line | relative viability ([1]; 0.005 µM) | relative viability ([1]; 0.01581 µM) | relative viability ([1]; 0.05 µM) | relative viability ([1]; 0.1581 µM) | relative viability ([1]; 0.5 µM) | relative viability ([2]; 1 µM) | relative viability ([2]; 3.162 µM) | relative viability ([2]; 10 µM) | relative viability ([2]; 31.62 µM) | relative viability ([2]; 100 µM) | relative viability ([3]; 0.04 µM) | relative viability ([3]; 0.1265 µM) | relative viability ([3]; 0.4 µM) | relative viability ([3]; 1.265 µM) | relative viability ([3]; 4 µM)
NCI-H1563 | 0.999 | 0.887 | 0.973 | 0.924 | 0.891 | 0.999 | 0.996 | 0.981 | 0.957 | 0.895 | 0.993 | 0.961 | 0.971 | 1.14 | 1.05
NCI-H1623 | 1.12 | 0.945 | 0.884 | 1.02 | 0.984 | 0.905 | 0.924 | 0.834 | 0.677 | 0.803 | 0.956 | 0.935 | 0.971 | 1.03 | 0.929
NCI-H1648 | 1.03 | 0.984 | 0.61 | 0.882 | 0.632 | 0.791 | 0.852 | 0.869 | 0.625 | 0.691 | 0.85 | 1.06 | 1.07 | 0.724 | 0.694
NCI-H1650 | 1.07 | 0.805 | 1.05 | 0.822 | 1.15 | 0.889 | 0.811 | 0.787 | 0.607 | 0.813 | 0.783 | 1.01 | 0.974 | 0.978 | 0.861
NCI-H1651 | 0.973 | 0.89 | 0.963 | 0.951 | 1 | 1.03 | 0.998 | 0.944 | 0.871 | 0.944 | 1.04 | 1.06 | 1.08 | 1.01 | 1.01
NCI-H1666 | 1.06 | 0.965 | 0.965 | 1 | 0.977 | 1.01 | 0.909 | 0.837 | 0.795 | 0.776 | 0.902 | 1.34 | 1.03 | 1.06 | 0.998
NCI-H1703 | 0.846 | 0.48 | 0.266 | 0.216 | 0.238 | 0.835 | 0.945 | 0.908 | 0.902 | 0.879 | 0.664 | 0.966 | 0.906 | 0.979 | 0.877
NCI-H1734 | 0.998 | 0.951 | 1.03 | 0.9 | 1.03 | 0.885 | 0.99 | 0.915 | 0.751 | 0.937 | 0.91 | 1.01 | 0.982 | 0.996 | 1.08
NCI-H1755 | 1.02 | 1.01 | 1.05 | 0.992 | 0.997 | 0.919 | 0.964 | 0.882 | 0.841 | 1.05 | 1.06 | 1.05 | 1.02 | 1.05 | 1.08
NCI-H1792 | 0.965 | 0.814 | 0.855 | 0.935 | 0.7 | 0.725 | 0.938 | 0.731 | 0.621 | 0.886 | 0.877 | 1.12 | 1.08 | 0.841 | 0.85
NCI-H1793 | 1.06 | 0.833 | 0.889 | 0.819 | 0.647 | 0.734 | 0.817 | 0.838 | 0.823 | 0.874 | 0.834 | 1.05 | 0.882 | 0.686 | 0.999
NCI-H1915 | 1 | 1.07 | 0.982 | 0.99 | 0.999 | 0.887 | 1.03 | 0.737 |  | 1.08 | 1.01 | 1.1 | 1.05 | 0.947 | 0.958
NCI-H1944 | 1.04 | 0.952 | 1.02 | 0.943 | 0.761 | 0.898 | 0.826 | 0.781 | 0.451 | 0.71 | 0.968 | 1.05 | 0.993 | 0.941 | 0.988
NCI-H1975 | 1.02 | 0.927 | 0.89 | 0.943 | 0.985 | 0.861 | 0.642 | 0.665 | 0.623 | 0.598 | 0.867 | 1.07 | 1 | 0.93 | 0.973
NCI-H1993 | 1.05 | 0.892 | 0.909 | 0.94 | 0.864 | 0.693 | 0.764 | 0.743 | 0.658 | 0.775 | 0.911 | 0.927 | 1.22 | 0.921 | 0.994
NCI-H2009 | 1.01 | 1 | 1.05 | 1.06 | 1.09 | 0.96 | 1.01 | 0.974 | 0.65 | 0.878 | 1.02 | 1.04 | 1.04 | 1.03 | 1.05
NCI-H2023 | 0.984 | 0.972 | 0.945 | 0.936 | 1.13 | 0.924 | 0.846 | 0.902 | 0.461 | 0.686 | 0.975 | 1.08 | 1.14 | 1.08 | 1.13
NCI-H2085 | 1.02 | 1.05 | 1.03 | 0.998 | 0.998 | 0.892 | 0.973 | 0.947 | 0.897 | 0.959 | 0.964 | 1.03 | 0.994 | 1.02 | 0.993
NCI-H2087 | 0.939 | 1.09 | 0.996 | 1.02 | 0.986 | 0.932 | 1.13 | 1.02 | 0.63 | 0.958 | 1.12 | 1.2 | 1.07 | 0.969 | 1.03
